Test results from patent US7629323B2, “Manipulation of neuronal ion channels” (Northwestern University, priority 2003, dated 2009).

Tests used:
homomeric Kv3.4 channels = molecular target: T1, homomeric Kv3.4 channels (Rattus norvegicus, UniProt Q63734); conditions: low micromolar concentrations; cited from earlier work
T1 sequence (Q63734 1-625): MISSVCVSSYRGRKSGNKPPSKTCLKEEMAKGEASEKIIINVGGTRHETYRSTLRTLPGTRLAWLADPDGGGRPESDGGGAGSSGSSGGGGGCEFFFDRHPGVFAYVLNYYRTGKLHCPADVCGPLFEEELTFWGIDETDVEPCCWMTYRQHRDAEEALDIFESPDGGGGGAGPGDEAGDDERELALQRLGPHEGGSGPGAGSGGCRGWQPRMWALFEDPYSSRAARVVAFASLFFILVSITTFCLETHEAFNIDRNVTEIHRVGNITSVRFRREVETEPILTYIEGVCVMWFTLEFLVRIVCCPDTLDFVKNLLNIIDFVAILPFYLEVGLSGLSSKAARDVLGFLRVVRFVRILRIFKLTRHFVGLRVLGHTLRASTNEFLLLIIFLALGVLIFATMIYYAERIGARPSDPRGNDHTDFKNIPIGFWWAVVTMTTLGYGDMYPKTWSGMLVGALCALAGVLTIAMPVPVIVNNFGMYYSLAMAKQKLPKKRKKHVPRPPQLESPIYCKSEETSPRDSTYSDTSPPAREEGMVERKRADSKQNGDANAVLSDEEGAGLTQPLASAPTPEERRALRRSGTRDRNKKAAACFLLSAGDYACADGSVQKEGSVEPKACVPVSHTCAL

FS neurons = test: Current clamp recording of spiking in FS neurons; type: cell-based, rat
Description: (§1) Tissue preparation. […] Hippocampal interneurons and GP were identified as CaMKII negative, GAD67 and parvalbumin positive neurons by single cell RT-PCR detection of corresponding mRNAs following physiology experiments (see below).
Electrophysiology. Whole-cell recordings used standard techniques^27,28. The internal solution consisted of (in mM): 30-90 K2SO4, 0-60 N-methyl-D-glucamine, 2 MgCl2, 40 HEPES, 5 EGTA, 12 phosphocreatine, 2 Na2ATP, 0.2 Na3GTP, and 0.1 leupeptin, pH 7.2 with H2SO4 (osmolarity 260-270 mOsm/l). The external solution consisted of (in mM): 140 Na-isethionate, 2 KCl, 4 MgCl2, 10 HEPES, 12 glucose and 0.001 TTX, pH 7.35 with NaOH (osmolarity 295-305 mOsm/l). The internal solution for current clamp recordings consisted of (in mM) 110 potassium methylsulphate, 2 MgCl2, 40 HEPES, 5 EGTA, 12 phosphocreatine, 2 Na2ATP, 0.2 Na3GTP, and 0.1 leupeptin, pH 7.2 with H2SO4 (osmolarity 260-270 mOsm/l). In the case of current clamp recordings, TTX was omitted from external solution. For the recordings in the presence of Ca^+2 ions EGTA was omitted from internal solution and 4 mM of MgCl2 was substituted by 2 mM of CaCl2 and 2 mM of MgCl2. All drugs were obtained from Sigma (St. Louis, […]) except BDS-I that was obtained from Alomone Labs (Jerusalem, Israel). Solutions were applied by gravity fed sewer pipe system. Recordings were obtained with Axon Instruments 200 patch-clamp amplifier and controlled and monitored with a PC running pClamp software (version 7.0) (Axon Instruments Inc., Union City, Calif.). […] After seal rupture, series resistance (2-10 MΩ) was compensated (75-90%) and periodically monitored. […] Activation data were fit with a Boltzmann equation of the form: 1/(1+exp ((Vh−V)/Vc), V stands for membrane potential. In the case of Kv3.4a current, an estimate of peak current was obtained by single exponential fit of decay phase extrapolated to the start of test pulse. In all other instances the voltage dependence of the currents was obtained from the amplitude of tail currents measured following 200 msec long voltage steps. […]

[1] = test system: K+ channels in the Kv1, Kv2, Kv3, and Kv4 subfamilies; conditions: cited from earlier work
Kv3.4 channel = molecular target: T2, Kv3.4 channel (Rattus norvegicus, UniProt Q63734); conditions: COS-transfected cells, reversible; read-out: IC50, inhibition of Kv3.4 current; cited from earlier work
T2 construct: host or cells: COS cells
T2 sequence (Q63734 1-625): T1 sequence (Q63734 1-625)

[2] = test system: Na+ currents in FS neurons; test: Na+ currents in FS neurons; type: cell-based, rat; conditions: n=3
Description: as §1
Electrophysiology. Whole-cell recordings used standard techniques^27,28. The internal solution consisted of (in mM): 30-90 K2SO4, 0-60 N-methyl-D-glucamine, 2 MgCl2, 40 HEPES, 5 EGTA, 12 phosphocreatine, 2 Na2ATP, 0.2 Na3GTP, and 0.1 leupeptin, pH 7.2 with H2SO4 (osmolarity 260-270 mOsm/l). The external solution consisted of (in mM): 140 Na-isethionate, 2 KCl, 4 MgCl2, 10 HEPES, 12 glucose and 0.001 TTX, pH 7.35 with NaOH (osmolarity 295-305 mOsm/l). The internal solution for current clamp recordings consisted of (in mM) 110 potassium methylsulphate, 2 MgCl2, 40 HEPES, 5 EGTA, 12 phosphocreatine, 2 Na2ATP, 0.2 Na3GTP, and 0.1 leupeptin, pH 7.2 with H2SO4 (osmolarity 260-270 mOsm/l). In the case of current clamp recordings, TTX was omitted from external solution. […] Recordings were obtained with Axon Instruments 200 patch-clamp amplifier and controlled and monitored with a PC running pClamp software (version 7.0) (Axon Instruments Inc., Union City, Calif.). […] After seal rupture, series resistance (2-10 MΩ) was compensated (75-90%) and periodically monitored. […]

BDS-I (AAPCFCSGKPGRGDLWILRGTCPGGYGYTSNCYKWPNICCYPH)
block of homomeric Kv3.4 channels (homomeric Kv3.4 channels): blocks | change in the rate of rise in the spike (FS neurons): no obvious change | increase of duration of spikes in FS neurons (FS neurons; BDS-I 2 μM, extracellular Ca2+ 2 mM, n=4): 53+13% | rate of repetitive spiking evoked by sustained current injection (FS neurons; with and without extracellular Ca2+): slowed | block of other K+ channels in the Kv1, Kv2, Kv3, and Kv4 subfamilies [1]: failed to block | IC50 (Kv3.4 channel): 47 nM | inactivation kinetics of Na+ currents in FS neurons [2]: didn't significantly alter
